# Assay results as given in paper PMC4635624, “In vitro and in vivo single-agent efficacy of checkpoint kinase inhibition in acute lymphoblastic leukemia” (Journal of Hematology & Oncology, 2015).
# “And” between values parts separate entries of the source, which are not always exact repeats. Identical values can stand only once.
# Tests used:
# [1] = test system: B/T-ALL cell lines (BV-173, SUP-B15, REH, NALM-6, NALM-19, MOLT-4, RPMI-8402, CCRF-CEM); assay: Gene expression profiling (Affymetrix GeneChip Human Gene 1.0 ST); format: cell-based
# Description: In order to identify gene expression changes specifically correlated with Chk1 inhibition and to better elucidate the mechanism of action of Chk1 inhibitor, gene expression profiling (GEP) analysis was performed by microarray on treated B/T-ALL cell lines (BV-173, SUP-B15, REH, NALM-6, NALM-19, MOLT-4, RPMI-8402, and CCRF-CEM) and on their untreated counterparts (DMSO 0.1 %) after 24 h of drug exposure. […] To identify peculiar critical pathways affected by Chk1 inhibition, the differentially expressed genes were analyzed in terms of biological function using the MetaCore pathway mapping software (GeneGo Inc.) which categorizes genes in pathway maps, Gene Ontology (GO) cellular processes, and cellular and molecular process networks. Consistent with a Chk1’s mechanism of action, the three top scored maps (map with the lowest p value) were “cell cycle: estrogen receptor 1 (ESR1) regulation of G1/S transition” including c-Jun/c-Fos, cyclin A, CARM1, Skp2/TrCP/FBXW, SKP2, c-Fos, CDK4, NCOA3, c-Jun, and CDK2 genes (Additional file 1: Figure S5); “apoptosis and survival: granzyme A signaling” including PHAP1, Ku70/80, Ku80, Ku70, histone H3, NDPK A, SET, histone H2B, and histone H1 genes (Additional file 1: Figure S6); and “DNA damage: ATM/ATR regulation of G1/S checkpoint” including PCNA, growth arrest and DNA damage 45 alpha (GADD45a), Chk2, cyclin A, NF-kB, cyclin-dependent kinase 4 (CDK4), FANCD2, Claspin, and CDK2 genes (Additional file 1: Figure S7). GO cellular processes highlighted 617 genes involved in cellular metabolic process (Additional file 3). Finally, the three top scored process networks impaired by the treatment with Chk1 inhibitor were as follows: the DNA damage checkpoint, the S phase of cell cycle, and the apoptosis, confirming the specificity of treatment on its target pathways (Additional file 4). […] Due to its implication in the regulation of the cell cycle and apoptosis, Western blot analysis against c-Jun was performed to better comprehend its biological role in response to PF-00477736. c-Jun is a component of the transcription factor activating protein-1 (AP-1) which is involved in cell cycle progression through the G1 phase by the regulation of the cyclin D1 [28]. […] The data found in the gene expression profile analysis were validated using qPCR.
# Gene expression profiling on treated and untreated cells (DMSO 0.1 %) after 24 h of exposure to PF-0077736 was performed using Affymetrix GeneChip Human Gene 1.0 ST platform (Affymetrix Inc. Santa Clara, CA, USA) and following manufacturers’ instructions. Raw data were normalized by using the RMA algorithm and filtered. Genes differentially expressed were selected by analysis of variance (ANOVA) (p value threshold =0.05) using the Partek Genomics Suite software (Partek Incorporated Saint Louis, MO, USA; http://www.partek.com).
# B- and T-ALL cell lines = assay: Annexin V/PI staining of apoptotic cells; format: cell-based, human; conditions: 0.1, 0.5, 1 μM (0.05, 0.1, 0.2 μM for BV-173 and RPMI-8402), 24 and 48 h; proportional to dose and exposure time
# Description: In order to assess whether cytotoxicity was correlated to increased susceptibility to apoptosis, B-/T-ALL cell lines were incubated with increasing concentrations of drug (0.1, 0.5, and 1 μM and 0.05, 0.1, and 0.2 μM only for BV-173 and RPMI-8402, respectively) for 24 and 48 h. […] The induction of apoptosis by PF-00477736 was also assessed by the detection of poly (ADP-ribose) polymerase (PARP) cleavage by Western blot analysis.
# According to the WST-1 results, three different increasing concentrations of PF-00477736 were used to treat leukemia cells lines in order to detect and discriminate apoptotic, necrotic and dead cells. Cell lines were seeded in 12-well plates at 500,000 cell/1 ml with increasing concentrations of drug (0.1, 0.5 and 1 μM and 0.05, 0.1 and 0.2 μM only for BV-173 and RPMI-8402) for 24 and 48 h and incubated at 37 °C. Following the treatment, cells were harvested and stained with Annexin V/PI according to the manufacturer’s instruction (Roche). The percentage of Annexin V-PI-positive cells was determined within 1 × 10^4 cells of the population by flow cytometry (FACSCanto II, BD Biosciences Pharmingen, San Jose, CA, USA). The mean percentage of Annexin V-PI-positive cells and standard error measurement was calculated from at least two separate experiments.
smiles,measurement,setting,value
Cn1cc(-c2[nH]c3cc(NC(=O)[C@H](N)C4CCCCC4)cc4c3c2C=NNC4=O)cn1 [PF-00477736],"Fold-Change (PF-00477736 vs. DMSO), SESN2","[1]; transcript ID 7899436, 24 h, up-regulated",2.221
same,"Fold-Change (PF-00477736 vs. DMSO), RNU11","[1]; transcript ID 7899502, 24 h, up-regulated",2.283
same,"Fold-Change (PF-00477736 vs. DMSO), GADD45A","[1]; transcript ID 7902227, 24 h, up-regulated",2.163
same,"Fold-Change (PF-00477736 vs. DMSO), HIST2H4A","[1]; transcript ID 7905067, 24 h, up-regulated",3.531
same,"Fold-Change (PF-00477736 vs. DMSO), BTG2","[1]; transcript ID 7908917, 24 h, up-regulated",2.0536
same,"Fold-Change (PF-00477736 vs. DMSO), ATF3","[1]; transcript ID 7909610, 24 h, up-regulated",2.764
same,"Fold-Change (PF-00477736 vs. DMSO), JUN","[1]; transcript ID 7916609, 24 h, up-regulated",5.3469
same,"Fold-Change (PF-00477736 vs. DMSO), HIST2H2BF","[1]; transcript ID 7919584, 24 h, up-regulated",2.188
same,"Fold-Change (PF-00477736 vs. DMSO), HIST2H2BF","[1]; transcript ID 7919606, 24 h, up-regulated",2.022
same,"Fold-Change (PF-00477736 vs. DMSO), HIST2H4A","[1]; transcript ID 7919627, 24 h, up-regulated",3.531
same,"Fold-Change (PF-00477736 vs. DMSO), RGS16","[1]; transcript ID 7922717, 24 h, up-regulated",2.4
same,"Fold-Change (PF-00477736 vs. DMSO), NFKB2","[1]; transcript ID 7930074, 24 h, up-regulated",2.262
same,"Fold-Change (PF-00477736 vs. DMSO), KLF6","[1]; transcript ID 7931810, 24 h, up-regulated",2.17 and 2.174
same,"Fold-Change (PF-00477736 vs. DMSO), BNIP3","[1]; transcript ID 7937079, 24 h, down-regulated",-2.2734
same,"Fold-Change (PF-00477736 vs. DMSO), BEST1","[1]; transcript ID 7940582, 24 h, up-regulated",2.3629
same,"Fold-Change (PF-00477736 vs. DMSO), TCP11L2","[1]; transcript ID 7958262, 24 h, up-regulated",2.209
same,"Fold-Change (PF-00477736 vs. DMSO), CD69","[1]; transcript ID 7961075, 24 h, up-regulated",3.17
same,"Fold-Change (PF-00477736 vs. DMSO), RND1","[1]; transcript ID 7962884, 24 h, up-regulated",2.096
same,"Fold-Change (PF-00477736 vs. DMSO), DDIT3","[1]; transcript ID 7964460, 24 h, up-regulated",3.32 and 3.325
same,"Fold-Change (PF-00477736 vs. DMSO), FOS","[1]; transcript ID 7975779, 24 h, up-regulated",2.40 and 2.404
same,"Fold-Change (PF-00477736 vs. DMSO), CHAC1","[1]; transcript ID 7982868, 24 h, up-regulated",2.1
same,"Fold-Change (PF-00477736 vs. DMSO), MAP1LC3B","[1]; transcript ID 7997740, 24 h, up-regulated",2.05
same,"Fold-Change (PF-00477736 vs. DMSO), ALDOC","[1]; transcript ID 8013660, 24 h, down-regulated",-2.184
same,"Fold-Change (PF-00477736 vs. DMSO), ROCK1P1","[1]; transcript ID 8019804, 24 h, up-regulated",2.468
same,"Fold-Change (PF-00477736 vs. DMSO), PPP1R15A","[1]; transcript ID 8030128, 24 h, up-regulated",2.884
same,"Fold-Change (PF-00477736 vs. DMSO), TRIB3","[1]; transcript ID 8060344, 24 h, up-regulated",2.719
same,"Fold-Change (PF-00477736 vs. DMSO), CEBPB","[1]; transcript ID 8063386, 24 h, up-regulated",2.112
same,"Fold-Change (PF-00477736 vs. DMSO), NFKBIZ","[1]; transcript ID 8081386, 24 h, up-regulated",2.098
same,"Fold-Change (PF-00477736 vs. DMSO), IL8","[1]; transcript ID 8095680, 24 h, up-regulated",2.299
same,"Fold-Change (PF-00477736 vs. DMSO), EGR1","[1]; transcript ID 8108370, 24 h, up-regulated",2.571
same,"Fold-Change (PF-00477736 vs. DMSO), ARRDC3","[1]; transcript ID 8113073, 24 h, up-regulated",2.177
same,"Fold-Change (PF-00477736 vs. DMSO), HIST1H2BJ","[1]; transcript ID 8124484, 24 h, up-regulated",2.658
same,"Fold-Change (PF-00477736 vs. DMSO), HIST1H2AJ","[1]; transcript ID 8124518, 24 h, up-regulated",5.146
same,"Fold-Change (PF-00477736 vs. DMSO), HIST1H2AM","[1]; transcript ID 8124540, 24 h, up-regulated",2.131
same,"Fold-Change (PF-00477736 vs. DMSO), IER3","[1]; transcript ID 8124848, 24 h, up-regulated",2.508
same,"Fold-Change (PF-00477736 vs. DMSO), IER3","[1]; transcript ID 8178435, 24 h, up-regulated",2.417
same,"Fold-Change (PF-00477736 vs. DMSO), IER3","[1]; transcript ID 8179704, 24 h, up-regulated",2.508
same,upregulated genes,"[1]; treated vs DMSO 0.1 %, 24 h, 44 % of 941",413 genes
same,down-modulated genes,"[1]; treated vs DMSO 0.1 %, 24 h, 56 % of 941",528 genes
same,differentially expressed genes (p < 0.05),"[1]; treated vs DMSO 0.1 %, 24 h of drug exposure",941 genes
same,apoptosis (Annexin V/PI-positive cells),B- and T-ALL cell lines,significant increase of apoptosis
